Laboratory results: patent US20110071108A1, “Beta-Cyclodextrin Derivatives as Antibacterial Agents” (Pinnacle Pharmaceuticals, Inc., priority 2005, published 2011)

Columns and labels:
[1] = system: Lungs cancer cells A549
[2] = system: Enterococcus faecium; experiment: Bacterial panel testing, MIC by broth microdilution; type: cell-based; details: 20-24 hours growth
Procedure, shortened: (§1)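 Twofold broth microdilution: compound, prepared at 10 μg/ml in DMSO, serially diluted left to right in inoculated Mueller-Hinton or Brain Heart infusion media. Inoculum from 2-4 h cultures at 37° C, standardized to McFarland density. Plates sealed and grown 20-24 h, then clear wells scored.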

[3] = system: Pseudomonas aeruginosa; experiment: as above; type: cell-based; details: 20-24 hours growth
Procedure, shortened: as §1

[4] = system: Eschericia coli; experiment: as above; type: cell-based; details: 20-24 hours growth
Procedure, shortened: as §1

[5] = system: Staphylococcus aureus; experiment: as above; type: cell-based; details: 20-24 hours growth
Procedure, shortened: as §1

[6] = system: Salmonella choleraesuis; experiment: as above; type: cell-based; details: 20-24 hours growth
Procedure, shortened: as §1

[7] = system: P. aeruginosa (susceptible clinical isolate); experiment: Potentiation of clinically used antibiotics, susceptible clinical isolate; type: cell-based, Pseudomonas aeruginosa; details: Table 3; antibiotic alone or mixed with PP compound
Method: (§2) One to three colonies of bacteria were picked from an Mueller-Hinton or Brain Heart infusion agar plate (depending on the bacterial strain) and transferred to 3 ml Mueller-Hinton broth or Brain Heart infusion media (depending on the bacterial strain). Bacteria were allowed to grow for 2-4 hours in an incubator at 37° C. Bacteria-inoculated media were dispersed in 0.9% saline to match McFarland standard density. 100 μl standardized inoculation was added to 20 ml media (dilution 1). 10 μl of the new dilution was added to 990 μl media and mixed (dilution 2). 10 μl of dilution 2 was spread on an agar plate and allowed to grow overnight. Colonies were then […].
(§3) Test compound was diluted to 10 μg/ml in dimethylsulfoxide. Four μl of Rifampicin antibiotic was loaded into row H, column 2.
(§4) All wells were then filled with 100 μl of inoculated media (dilution 1 from Example 1). A further 100 μl of the inoculated media was then added to column 2 and the contents are pipetted to thoroughly mix the contents. A full 100 μl was then transferred from column 2 and mixed into column 3. This process was continued from left to right until columns 2-12 were serially diluted, and the final draw from column 12 was discarded. The plates were covered with 3M sealing tape (plates containing Enterococcus faecium were sealed with Air Pore sealing tape) and allowed to grow for 20-24 hours. Cytotoxic wells (clear wells) are then scored and the potency of the compound was determined.
Numerous pathogenic bacteria have developed a resistance to many clinically used antibiotics. Following the protocols described herein, various compounds were mixed with clinically used antibiotics to treat Pseudomonas aeruginosa (P. aeruginosa).

[8] = system: Pseudomonas aeruginosa clinical isolate, multi-drug resistant; experiment: Potentiation of clinically used antibiotics, multi-drug resistant clinical isolate; type: cell-based; details: Table 4, antibiotic alone or mixed with PP compound
Method: as §2, §3
as §4, with “The plates were covered with 3M sealing tape (plates containing Enterococcus faecium were sealed with Air Pore sealing tape) and allowed to grow for 20-24 hours.” left out, “determined. […]” for “determined.”

MIC [8] [µg/mL]	Structure (SMILES)	Mammalian Cytotoxicity IC50 [1] [µg/mL]	MIC EF [2] [µg/mL]	MIC PA [3] [µg/mL]	MIC EC [4] [µg/mL]	MIC SA [5] [µg/mL]	MIC SC [6] [µg/mL]	Activity of known antibiotics alone or in combination with compounds of the invention, P. aeruginosa (susceptible clinical isolate) [7]
	O=C(NCC1OC2OC3C(CNC(=O)C4CCCN4)OC(OC4C(CNC(=O)C5CCCN5)OC(OC5C(CNC(=O)C6CCCN6)OC(OC6C(CNC(=O)C7CCCN7)OC(OC7C(CNC(=O)C8CCCN8)OC(OC8C(CNC(=O)C9CCCN9)OC(OC1C(O)C2O)C(O)C8O)C(O)C7O)C(O)C6O)C(O)C5O)C(O)C4O)C(O)C3O)C1CCCN1.O=C(O)C(F)(F)F.O=C(O)C(F)(F)F.O=C(O)C(F)(F)F.O=C(O)C(F)(F)F.O=C(O)C(F)(F)F.O=C(O)C(F)(F)F.O=C(O)C(F)(F)F (stereo not shown)	524	>200	>200	>200	>200	>200	
	Cl.Cl.Cl.Cl.Cl.Cl.Cl.Cl.Cl.Cl.Cl.Cl.Cl.Cl.NCCCC[C@@H](N)C(=O)NC[C@H]1O[C@@H]2O[C@H]3[C@H](O)[C@@H](O)[C@@H](O[C@H]4[C@H](O)[C@@H](O)[C@@H](O[C@H]5[C@H](O)[C@@H](O)[C@@H](O[C@H]6[C@H](O)[C@@H](O)[C@@H](O[C@H]7[C@H](O)[C@@H](O)[C@@H](O[C@H]8[C@H](O)[C@@H](O)[C@@H](O[C@H]1[C@H](O)[C@H]2O)O[C@@H]8CNC(=O)[C@H](N)CCCCN)O[C@@H]7CNC(=O)[C@H](N)CCCCN)O[C@@H]6CNC(=O)[C@H](N)CCCCN)O[C@@H]5CNC(=O)[C@H](N)CCCCN)O[C@@H]4CNC(=O)[C@H](N)CCCCN)O[C@@H]3CNC(=O)[C@H](N)CCCCN	2990	>200	>200	>200	>200	>200	
	I.I.I.I.I.I.I.N=C(N)SCC1OC2OC3C(CSC(=N)N)OC(OC4C(CSC(=N)N)OC(OC5C(CSC(=N)N)OC(OC6C(CSC(=N)N)OC(OC7C(CSC(=N)N)OC(OC8C(CSC(=N)N)OC(OC1C(O)C2O)C(O)C8O)C(O)C7O)C(O)C6O)C(O)C5O)C(O)C4O)C(O)C3O (stereo not shown)	480	>200	>200	>200	>200	>200	
	Cl.Cl.Cl.Cl.Cl.Cl.NCCCCSCC1OC2OC3C(CSCCCCN)OC(OC4C(CSCCCCN)OC(OC5C(CSCCCCN)OC(OC6C(CSCCCCN)OC(OC7C(CSCCCCN)OC(OC1C(O)C2O)C(O)C7O)C(O)C6O)C(O)C5O)C(O)C4O)C(O)C3O (stereo not shown)	589	>200	>200	>200	>200	>200	
	COc1cccc(OC)c1C(=O)N[C@@H]1C(=O)N2[C@@H]1SC(C)(C)[C@@H]2C(=O)O [Methicillin]							>100
> 100	CCn1cc(C(=O)O)c(=O)c2cc(F)c(N3CCNCC3)cc21 [Norfloxacin]							
	CC1(C)S[C@@H]2[C@H](NC(=O)COc3ccccc3)C(=O)N2[C@H]1C(=O)O [Penicillin V]							>100
	CN[C@H](CC(C)C)C(=O)N[C@H]1C(=O)N[C@@H](CC(N)=O)C(=O)N[C@H]2C(=O)N[C@H]3C(=O)N[C@H](C(=O)N[C@H](C(=O)O)c4cc(O)cc(O)c4-c4cc3ccc4O)[C@H](O)c3ccc(c(Cl)c3)Oc3cc2cc(c3O[C@@H]2O[C@H](CO)[C@@H](O)[C@H](O)[C@H]2O[C@H]2C[C@](C)(N)[C@H](O)[C@H](C)O2)Oc2ccc(cc2Cl)[C@H]1O [Vancomycin]							>100
